This experiment has as its target T1, Nav1.7 (or SCN9A) channel (Homo sapiens, UniProt Q15858).
T1 construct: expressed in transfected cells
The experiment in a line: Nav1.7 PatchXpress 7000 automated electrophysiology assay (HEK cells stably expressing hSCN9A). Particulars: voltage-clamped at V1/2 of inactivation, read-out: Nav1.7 EIC50. It counts as cell-based. The procedure: The ability of the compounds of formula (I) to block the Nav1.7 (or SCN9A) channel was measured using the assays described below.
Human Embryonic Kidney (HEK) cells were transfected with an hSCN9A construct using lipofectamine reagent (Invitrogen), using standard techniques. Cells stably expressing the hSCN9A constructs were identified by their resistance to G-418 (400 μg/ml). Clones were screened for expression using the whole-cell voltage-clamp technique.
HEK cells stably transfected with hSCN9A were maintained in DMEM medium supplemented with 10% heat-inactivated fetal bovine serum and 400 μg/ml G-418 in an incubator at 37° C. with a humidified atmosphere of 10% CO2. For HTS, cells were harvested from flasks by trypsinization and replated in an appropriate multi-well plate (typically 96 or 384 wells/plate) such that confluence would be achieved within 24 hours of plating. For electrophysiological studies, cells were removed from the culture flask by brief trypsinization and re-plated at low density onto glass cover slips. Cells were typically used for electrophysiological experiments within 24 to 72 hours after plating.
Cover slips containing HEK cells expressing hSCN9A were placed in a bath on the stage of an inverted microscope and perfused (approximately 1 ml/minutes) with extracellular solution of the following composition: 138 mM NaCl, 2 mM CaCl2, 5.4 mM KCl, 1 mM MgCl2, 10 mM glucose, and 10 mM HEPES, pH 7.4, with NaOH. […] The osmolarity of the extracellular and intracellular solutions was 300 mOsm/kg and 295 mOsm/kg, respectively. All recordings were made at room temperature (22-24° C.) using AXOPATCH 200B amplifiers and PCLAMP software (Axon Instruments, Burlingame, Calif.).
HEK cells stably transfected with hSCN9A were viewed under Hoffman contrast optics and placed in front of an array of flow pipes emitting either control or compound-containing extracellular solutions. All compounds were dissolved in dimethyl sulfoxide to make 10 mM stock solutions, which were then diluted into extracellular solution to attain the final concentrations desired. […] The voltage-dependence of inactivation was determined by applying a series of depolarizing prepulses (8 sec long in 10 mV increments) from a negative holding potential. The voltage was then immediately stepped to 0 mV to assess the magnitude of the sodium current. Currents elicited at 0 mV were plotted as a function of prepulse potential to allow estimation of the voltage at which 50% of the channels were inactivated (midpoint of inactivation or V1/2). Compounds were tested for their ability to inhibit hSCN9A sodium channels by activating the channel with a 20 msec voltage step to 0 mV following an 8 second conditioning prepulse to the empirically determined V1/2. Compound effect (% inhibition) was determined by difference in current amplitude before and after application of test compounds. For ease of comparison, “estimated IC-50” (EIC50) values were calculated from single point electrophysiology data by the following equation, (tested concentration, uM)×(100-% inhibition/% inhibition). Inhibition values <20% and >80% were excluded from the calculation.
Electrophysiological assays were conducted with PatchXpress 7000 hardware and associated software (Molecular Devices Corp). All assay buffers and solutions were identical to those used in conventional whole-cell voltage clamp experiments described above. hSCN9A cells were grown as above to 50%-80% confluency and harvested by trypsinization. Trypsinized cells were washed and resuspended in extracellular buffer at a concentration of 1×10^6 cells/ml. The onboard liquid handling facility of the PatchXpress was used for dispensing cells and application of test compounds. Determination of the voltage midpoint of inactivation was as described for conventional whole-cell recordings. Cells were then voltage-clamped to the empirically determined V1/2 and current was activated by a 20 msec voltage step to 0 mV. […]
T1 sequence (Q15858 whole entry): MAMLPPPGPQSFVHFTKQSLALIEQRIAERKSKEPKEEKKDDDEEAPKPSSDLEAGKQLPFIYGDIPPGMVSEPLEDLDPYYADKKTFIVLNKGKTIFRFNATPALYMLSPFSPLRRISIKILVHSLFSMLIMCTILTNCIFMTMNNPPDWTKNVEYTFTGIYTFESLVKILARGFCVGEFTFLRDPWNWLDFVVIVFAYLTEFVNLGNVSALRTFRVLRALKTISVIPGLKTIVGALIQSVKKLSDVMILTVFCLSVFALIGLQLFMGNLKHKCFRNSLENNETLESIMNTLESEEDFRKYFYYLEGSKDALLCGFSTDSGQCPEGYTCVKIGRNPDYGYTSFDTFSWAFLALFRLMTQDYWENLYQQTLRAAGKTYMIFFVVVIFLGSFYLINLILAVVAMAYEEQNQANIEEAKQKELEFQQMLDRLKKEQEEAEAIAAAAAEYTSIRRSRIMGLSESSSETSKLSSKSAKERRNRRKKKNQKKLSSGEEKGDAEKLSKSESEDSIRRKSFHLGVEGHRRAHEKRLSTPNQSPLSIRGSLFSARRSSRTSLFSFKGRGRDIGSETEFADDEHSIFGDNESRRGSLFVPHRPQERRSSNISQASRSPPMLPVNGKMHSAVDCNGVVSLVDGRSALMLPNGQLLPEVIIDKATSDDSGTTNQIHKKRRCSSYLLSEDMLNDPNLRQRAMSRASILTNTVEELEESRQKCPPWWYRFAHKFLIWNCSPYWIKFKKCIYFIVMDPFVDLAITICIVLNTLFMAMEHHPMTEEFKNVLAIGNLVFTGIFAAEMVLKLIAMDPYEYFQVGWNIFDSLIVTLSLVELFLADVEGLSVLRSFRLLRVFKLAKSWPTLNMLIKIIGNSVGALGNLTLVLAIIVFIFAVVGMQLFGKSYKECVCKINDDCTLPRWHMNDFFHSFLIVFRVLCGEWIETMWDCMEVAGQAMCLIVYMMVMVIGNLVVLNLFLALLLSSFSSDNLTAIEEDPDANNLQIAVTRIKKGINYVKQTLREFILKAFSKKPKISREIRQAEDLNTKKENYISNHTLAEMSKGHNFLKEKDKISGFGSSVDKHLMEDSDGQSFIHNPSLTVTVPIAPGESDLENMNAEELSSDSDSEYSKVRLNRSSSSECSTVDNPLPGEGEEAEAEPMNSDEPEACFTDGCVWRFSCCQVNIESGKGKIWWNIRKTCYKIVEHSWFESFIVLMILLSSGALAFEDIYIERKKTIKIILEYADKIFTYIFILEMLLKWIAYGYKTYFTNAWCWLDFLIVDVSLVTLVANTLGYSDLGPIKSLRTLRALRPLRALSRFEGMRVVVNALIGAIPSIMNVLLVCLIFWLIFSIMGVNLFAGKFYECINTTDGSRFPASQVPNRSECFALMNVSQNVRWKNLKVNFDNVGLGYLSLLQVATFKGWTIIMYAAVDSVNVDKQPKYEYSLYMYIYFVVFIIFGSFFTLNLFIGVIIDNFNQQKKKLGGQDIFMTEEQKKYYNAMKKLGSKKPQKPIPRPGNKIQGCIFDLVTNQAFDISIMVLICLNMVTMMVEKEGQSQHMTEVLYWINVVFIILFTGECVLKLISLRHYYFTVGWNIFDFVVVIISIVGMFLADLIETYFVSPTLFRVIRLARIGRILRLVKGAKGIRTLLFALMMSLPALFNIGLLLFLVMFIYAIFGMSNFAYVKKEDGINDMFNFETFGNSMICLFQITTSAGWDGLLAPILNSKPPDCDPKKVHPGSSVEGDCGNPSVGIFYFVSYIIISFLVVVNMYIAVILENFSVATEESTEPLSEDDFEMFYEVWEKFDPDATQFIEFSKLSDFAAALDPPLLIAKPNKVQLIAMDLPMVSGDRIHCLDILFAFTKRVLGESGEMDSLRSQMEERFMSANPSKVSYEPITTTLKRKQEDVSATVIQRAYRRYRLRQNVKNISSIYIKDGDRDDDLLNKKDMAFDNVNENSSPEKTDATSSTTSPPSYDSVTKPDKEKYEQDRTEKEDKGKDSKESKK
`COc1ccc(Oc2ccc(C(=O)NS(C)(=O)=O)cc2)cc1` [Example 186, 4-(4-methoxyphenoxy)-N-(methylsulfonyl)benzamide]: the IC50 turned out to be 34 µM.

On to `CS(=O)(=O)NC(=O)c1cc(F)c(Oc2cccc(F)c2)cc1F` [Example 142, 2,5-difluoro-4-(3-fluorophenoxy)-N-(methylsulfonyl)benzamide], for which the IC50 is greater than 3 µM.

As for `CS(=O)(=O)NC(=O)c1ccc(Oc2ccc(Cl)c(C(F)(F)F)c2)c(F)c1` [Example 42, 4-[4-chloro-3-(trifluoromethyl)phenoxy]-3-fluoro-N-(methylsulfonyl)benzamide], the IC50 is 0.59 µM.

Consider `CS(=O)(=O)NC(=O)c1ccc(Oc2ccc(-c3ccccc3)cc2)c(C#N)c1` [Example 280, 4-(biphenyl-4-yloxy)-3-cyano-N-(methylsulfonyl)benzamide], for which the IC50 was found to be 0.43 µM.

For the compound `CS(=O)(=O)NC(=O)c1cc(F)c(Oc2ccc(Cl)c(OC(F)(F)F)c2)cc1F` [Example 56, 4-(4-chloro-3-(trifluoromethoxy)phenoxy)-2,5-difluoro-N-(methylsulfonyl)benzamide], the IC50 was 0.2 µM.

Regarding `CS(=O)(=O)NC(=O)c1cc(Cl)c(Oc2ccccc2C#N)cc1F` [Example 293, 5-chloro-4-(2-cyanophenoxy)-2-fluoro-N-(methylsulfonyl)benzamide], the IC50 was greater than 3 µM.

For the compound `CS(=O)(=O)NC(=O)c1ccc(Oc2ccc(Cl)c(Cl)c2)cc1` [Example 182, 4-(3,4-dichlorophenoxy)-N-(methylsulfonyl)benzamide], the IC50 was found to be 1.4 µM.

Turning to `COc1cc(F)ccc1Oc1cc(F)c(C(=O)NS(C)(=O)=O)cc1F` [Example 69, 2,5-difluoro-4-(4-fluoro-2-methoxyphenoxy)-N-(methylsulfonyl)benzamide], the IC50 is 6.2 µM.

As to `COc1cc(Oc2ccc(Cl)c(C(F)(F)F)c2)c(F)cc1C(=O)NS(C)(=O)=O` [Example 60, 4-[4-chloro-3-(trifluoromethyl)phenoxy]-5-fluoro-2-methoxy-N-(methylsulfonyl)benzamide], the IC50 turned out to be 33 µM.

Regarding `COc1cc(F)cc(Oc2cc(F)c(C(=O)NS(C)(=O)=O)cc2F)c1` [Example 92, 2,5-difluoro-4-(3-fluoro-5-methoxyphenoxy)-N-(methylsulfonyl)benzamide], the IC50 was greater than 3 µM.

As for `CS(=O)(=O)NC(=O)c1ccc(Oc2cccc(F)c2F)cc1` [Example 195, 4-(2,3-difluorophenoxy)-N-(methylsulfonyl)benzamide], the IC50 was determined as 22 µM.

As to `Cc1cc(C(=O)NS(C)(=O)=O)ccc1Oc1ccc(F)cc1` [Example 237, 4-(4-fluorophenoxy)-3-methyl-N-(methylsulfonyl)benzamide], the IC50 is 2.5 µM.

Regarding `CS(=O)(=O)NC(=O)c1ccc(Oc2cccc(F)c2)c(C#N)c1` [Example 284, 3-cyano-4-(3-fluorophenoxy)-N-(methylsulfonyl)benzamide], the IC50 was 8.7 µM.

Turning to `CS(=O)(=O)NC(=O)c1ccc(Oc2ccc(Cl)cc2Cl)cc1` [Example 38, 4-(2,4-dichlorophenoxy)-N-(methylsulfonyl)benzamide], the IC50 was greater than 10 µM.

With `COc1cc(C)ccc1Oc1cc(F)c(C(=O)NS(C)(=O)=O)cc1F` [Example 85, 2,5-difluoro-4-(2-methoxy-4-methylphenoxy)-N-(methylsulfonyl)benzamide], the IC50 is greater than 1 µM.

In the case of `CCc1cc(F)ccc1Oc1ccc(C(=O)NS(C)(=O)=O)c(F)c1` [Example 19, 4-(2-ethyl-4-fluorophenoxy)-2-fluoro-N-(methylsulfonyl)benzamide], the IC50 was greater than 1 µM.

As for `COc1cc(Cl)ccc1Oc1cc(OC)c(C(=O)NS(C)(=O)=O)cc1F` [Example 61, 4-(4-chloro-2-methoxyphenoxy)-5-fluoro-2-methoxy-N-(methylsulfonyl)benzamide], the IC50 is greater than 10 µM.

As for `Cc1ccccc1Oc1cc(F)c(C(=O)NS(C)(=O)=O)cc1Cl` [Example 297, 5-chloro-2-fluoro-4-(2-methylphenoxy)-N-(methylsulfonyl)benzamide], the IC50 was 2.3 µM.

Regarding `CS(=O)(=O)NC(=O)c1ccc(Oc2ccc(C#N)c(C#N)c2)cc1` [Example 25, 4-(3,4-dicyanophenoxy)-N-(methylsulfonyl)benzamide], the IC50 is greater than 10 µM.

Take `COc1cc(Cl)cc(Oc2cc(F)c(C(=O)NS(C)(=O)=O)cc2F)c1` [Example 144, 4-(3-chloro-5-methoxyphenoxy)-2,5-difluoro-N-(methylsulfonyl)benzamide]: the IC50 is 2.3 µM.

As to `CS(=O)(=O)NC(=O)c1cc(Cl)c(Oc2ccc(Cl)c(OC(F)(F)F)c2)cc1F` [Example 17, 5-chloro-4-[4-chloro-3-(trifluoromethoxy)phenoxy]-2-fluoro-N-(methylsulfonyl)benzamide], the IC50 is 0.032 µM.

Take `Cc1cccc(Oc2ccc(C(=O)NS(C)(=O)=O)cc2)c1C` [Example 184, 4-(2,3-dimethylphenoxy)-N-(methylsulfonyl)benzamide]: the IC50 came out at 24 µM.

With `CS(=O)(=O)NC(=O)c1ccc(Oc2ccc(Cl)c(Cl)c2)c(Cl)c1` [Example 82, 3-chloro-4-(3,4-dichlorophenoxy)-N-(methylsulfonyl)benzamide], the IC50 was 0.14 µM.

Consider `CC(C)c1cccc(Oc2ccc(C(=O)NS(C)(=O)=O)cc2)c1` [Example 181, 4-(3-isopropylphenoxy)-N-(methylsulfonyl)benzamide], for which the IC50 came to 1.6 µM.

Take `CS(=O)(=O)NC(=O)c1ccc(Oc2ccccc2-c2ccccc2)cc1` [Example 268, 4-(biphenyl-2-yloxy)-N-(methylsulfonyl)benzamide]: the IC50 was determined as 5.3 µM.

Regarding `Cc1cc(Cl)ccc1Oc1ccc(C(=O)NS(C)(=O)=O)cc1` [Example 206, 4-(4-chloro-2-methylphenoxy)-N-(methylsulfonyl)benzamide], the IC50 amounted to 18 µM.

Turning to `CS(=O)(=O)NC(=O)c1cc(F)c(Oc2c(F)cc(F)cc2F)cc1F` [Example 94, 2,5-difluoro-N-(methylsulfonyl)-4-(2,4,6-trifluorophenoxy)benzamide], the IC50 was greater than 3 µM.

Turning to `CS(=O)(=O)NC(=O)c1cc(F)c(Oc2cc(F)cc(F)c2)cc1F` [Example 128, 4-(3,5-difluorophenoxy)-2,5-difluoro-N-(methylsulfonyl)benzamide], the IC50 turned out to be 11 µM.

Turning to `COc1cc(Oc2cccc(Cl)c2)ccc1C(=O)NS(C)(=O)=O` [Example 213, 4-(3-chlorophenoxy)-2-methoxy-N-(methylsulfonyl)benzamide], the IC50 was greater than 3 µM.

For the compound `CCc1cc(Cl)ccc1Oc1cc(F)c(C(=O)NS(C)(=O)=O)cc1F` [Example 3, 4-(4-Chloro-2-ethylphenoxy)-2,5-difluoro-N-(methylsulfonyl)benzamide], the IC50 came out at 1.7 µM.

`CS(=O)(=O)NC(=O)c1ccc(Oc2cccc(Cl)c2)c(F)c1` [Example 223, 4-(3-chlorophenoxy)-3-fluoro-N-(methylsulfonyl)benzamide]: the IC50 is 2.4 µM.

For `COc1ccc(C)cc1Oc1ccc(C(=O)NS(C)(=O)=O)cc1` [Example 185, 4-(2-methoxy-5-methylphenoxy)-N-(methylsulfonyl)benzamide], the IC50 was found to be 21 µM.

For the compound `CS(=O)(=O)NC(=O)c1cc(F)c(Oc2ccc(Cl)c(Cl)c2)cc1F` [Example 21, 4-(3,4-dichlorophenoxy)-2,5-difluoro-N-(methylsulfonyl)benzamide], the IC50 came to 0.45 µM.
